Here are results for 14 compounds from ChEMBL document CHEMBL4673299, “A new sesquineolignan and four new neolignans isolated from the leaves of Piper betle, a traditional medicinal plant in Myanmar” (Bioorg Med Chem Lett, 2021).

One test deals with RAW264.7. Kind of test: Anti-inflammatory activity in murine RAW264.7 cells assessed as inhibition of LPS-induced NO production. It counts as functional, cell-based. The settings on record: Mus musculus.
On to `CNC(=N)NCCC[C@H](N)C(=O)O` [TILARGININE], for which the IC50 (in general, the concentration that gives 50% inhibition) is 33.8 µM.

Turning to `C=CCc1ccc2c(c1)O[C@@H](c1ccc(O)c(O)c1)[C@H](Cc1cc(O)c(O)cc1CC=C)O2`, the IC50 came out at 9.87 µM.

On to `C=CCc1cc(O)c(OC)cc1C/C=C/c1ccc(OC)c(O)c1`, for which the IC50 turned out to be 45.9 µM.

In the case of `C=CCc1cc(O)c(O)cc1-c1cc(O)c(O)cc1CC=C`, the IC50 came out at 40.5 µM.

With `O=C/C=C/c1ccc(O)cc1` [p-HYDROXYCINNAMALDEHYDE], the IC50 was determined as 26.4 µM.

On to `C=CCc1ccc(O)c(O)c1` [HYDROXYCHAVICOL], for which the IC50 is 4.8 µM.

In another test the test system is RAW264.7. Kind of test: Anti-inflammatory activity in murine RAW264.7 cells assessed as inhibition of LPS-induced NO production at 50 uM relative to control. It counts as functional. Particulars: Mus musculus.
`COC(=O)/C=C/c1ccc(O)cc1` [METHYL P-HYDROXYCINNAMATE]: the inhibition (in general, the change of the read-out against control, counted positive when it falls) at 50 µM was below 50%.

For the compound `COc1cc(/C=C/C=O)ccc1O` [CONIFERYL ALDEHYDE], the inhibition at 50 µM was below 50%.

Regarding `COc1cc(C=O)ccc1O` [VANILLIN], the inhibition at 50 µM was below 50%.

As to `C=CCc1cc(O)c2c(c1)-c1cc(O)c(O)cc1C(C=C)O2` (centres undefined), the inhibition at 50 µM was below 50%.

With `C=CCc1cc(O)c(O)cc1-c1cc(OC)c(O)cc1CC=C`, the inhibition at 50 µM is below 50%.

As for `C=CCc1cc(O)c2oc3cc(O)c(O)c(CC=C)c3c2c1`, the inhibition at 50 µM was below 50%.

In the case of `C=CCc1ccc(O)c(OC)c1` [EUGENOL], the inhibition at 50 µM was below 50%.

For the compound `COc1cc(/C=C/CO)ccc1O` [CONIFERYL ALCOHOL], the inhibition at 50 µM is below 50%.
